Patent publication US8318769B2, “Substituted sulfonamide compounds” (Gruenethal GmbH, priority 2008, dated 2012)

Biological target: T1, bradykinin 1 receptor (B1R) of the rat (Rattus norvegicus, UniProt P97583)
T1 construct: expressed in transfected cells
T1 sequence (P97583 1-337): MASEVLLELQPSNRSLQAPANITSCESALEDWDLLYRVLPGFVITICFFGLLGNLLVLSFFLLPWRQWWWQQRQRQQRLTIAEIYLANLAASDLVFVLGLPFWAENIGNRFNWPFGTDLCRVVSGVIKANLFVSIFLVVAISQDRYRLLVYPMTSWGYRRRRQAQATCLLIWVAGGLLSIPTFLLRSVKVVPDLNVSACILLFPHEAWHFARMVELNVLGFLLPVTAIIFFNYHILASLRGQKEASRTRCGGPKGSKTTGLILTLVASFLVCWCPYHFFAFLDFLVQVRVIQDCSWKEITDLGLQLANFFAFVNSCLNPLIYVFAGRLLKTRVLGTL
Assay: FLIPR Ca2+ assay, B1R antagonism, rat
Type: cell-based
Conditions: 10 μM test substance; CHO K1 cells with rat B1R gene (rB1R cells); Des-Arg9-bradykinin at EC80; % inhibition compared with the maximum achievable inhibition
Method: The agonistic or antagonistic action of substances can be quantified on the bradykinin 1 receptor (B1R) of the human and rat species with ectopically expressing cell lines (CHO K1 cells) and with the aid of a Ca^2+-sensitive dyestuff (Fluo-4) in a fluorescent imaging plate reader (FLIPR). The figure in % activation is based on the Ca^2+ signal after addition of Lys-Des-Arg^9-bradykinin (0.5 nM) or Des-Arg^9-bradykinin (100 nM). Antagonists lead to a suppression of the Ca^2+ inflow after addition of the agonist. % inhibition compared with the maximum achievable inhibition is stated.
The agonistic or antagonistic action of substances can be determined on the bradykinin 1 receptor (B1R) of the human and rat species with the following assay. In accordance with this assay, the Ca^2+ inflow through the channel is quantified with the aid of a Ca^2+-sensitive dyestuff (type Fluo-4, Molecular Probes Europe BV, Leiden, Holland) in a fluorescent imaging plate reader (FLIPR, Molecular Devices, Sunnyvale, USA).
Chinese hamster ovary cells (CHO K1 cells) transfected stably with the human B1R gene (hB1R cells) or the B1R gene of the rat (rB1R cells) are used. For functional studies, these cells are plated out on black 96-well plates with a clear base (BD Biosciences, Heidelberg, Germany or Greiner, Frickenhausen, Germany) in a density of 20,000-35,000 cells/well. The cells are left overnight at 37° C. and 5% CO2 in culture medium (hB1R cells: Nutrient Mixture Ham's F12, Gibco Invitrogen GmbH, Karlsruhe, Germany or DMEM, Sigma-Aldrich, Taufkirchen, Germany; rB1R cells: D-MEM/F12, Gibco Invitrogen GmbH, Karlsruhe, Germany) with 10 vol. % FBS (foetal bovine serum, Gibco Invitrogen GmbH, Karlsruhe, Germany or PAN Biotech GmbH, Aidenbach, Germany).
On the following day, the cells are loaded for 60 min at 37° C. with 2.13 μM Fluo-4 (Molecular Probes Europe BV, Leiden, Holland) in HBSS buffer (Hank's buffered saline solution, Gibco Invitrogen GmbH, Karlsruhe, Germany) with 2.5 mM probenecid (Sigma-Aldrich, Taufkirchen, Germany) and 10 mM HEPES (Sigma-Aldrich, Taufkirchen, Germany). The plates are then washed 2× with HBSS buffer, and HBSS buffer which additionally contains 0.1% BSA (bovine serum albumin; Sigma-Aldrich, Taufkirchen, Germany), 5.6 mM glucose and 0.05% gelatine (Merck KGaA, Darmstadt, Germany) is added. After a further incubation of 20 minutes at room temperature, the plates are inserted into the FLIPR for the Ca^2+ measurement.
Alternatively, the plates are washed with buffer A (15 mM HEPES, 80 mM NaCl, 5 mM KCl, 1.2 mM CaCl2, 0.7 mM MgSO4, 2 g/l glucose, 2.5 mM probenecid), buffer A is added and the plates are loaded with 2.5 μM Fluo-4 and 0.025% Pluronic F127 (Sigma-Aldrich, Taufkirchen, Germany). Thereafter, the cells are washed 2× with buffer A and incubated for 30 minutes with buffer A, which additionally contains 0.05% BSA and 0.05% gelatine, at room temperature and thereafter inserted into the FLIPR for the Ca^2+ measurement.
The Ca^2+-dependent fluorescence is measured here before and after addition of substances (λex=488 nm, λem=540 nm). Quantification is by measurement of the highest fluorescence intensity (FC, fluorescence counts) over time.
The FLIPR protocol consists of 2 additions of substance. Test substances (10 μM) are first pipetted on to the cells and the Ca^2+ inflow is compared with the control (hB1R: Lys-Des-Arg^9-bradykinin >=50 nM; rB1R: Des-Arg^9-bradykinin 10 μM). This gives the figure in % activation based on the Ca^2+ signal after addition of Lys-Des-Arg^9-bradykinin (>=50 nM) or Des-Arg^9-bradykinin (10 μM).
After incubation for 10-20 minutes, Lys-Des-Arg^9-bradykinin (hB1R) or Des-Arg^9-bradykinin (rB1R) in the concentration of the EC80 is applied and the inflow of Ca^2+ is likewise determined. Antagonists lead to a suppression of the Ca^2+ inflow. % inhibition compared with the maximum achievable inhibition is calculated. […]

| B1R antagonism, rat [10 μM] % inhibition [%] | Molecule |
| --- | --- |
| 75 | 1-[4-pyridin-3-yl-4-(2-pyrrolidin-1-yl-ethoxy)-piperidin-1-yl]-2-[[4-[[2-(trifluoromethyl)-phenyl]sulfonyl]-3,4-dihydro-2H-[1,4]benzoxazin-3-yl]-methoxy]-ethanone [Example 110] |

Same assay, conditions: 10 μM test substance; CHO K1 cells with rat B1R gene (rB1R cells); Des-Arg9-bradykinin at EC80; % inhibition compared with the maximum achievable inhibition; 10 µM

| B1R antagonism, rat [10 μM] % inhibition [%] | Molecule |
| --- | --- |
| 98 | COc1cc(C)c(S(=O)(=O)N2CCCCC2CCOCC(=O)N2CCC(OCCN3CCCC3)(c3cccc(F)c3)CC2)c(C)c1 (centres unmarked) [Example 126, 1-[4-(3-fluorophenyl)-4-(2-pyrrolidin-1-yl-ethoxy)-piperidin-1-yl]-2-[2-[1-[(4-methoxy-2,6-dimethyl-phenyl)sulfonyl]-piperidin-2-yl]-ethoxy]-ethanone] |
| 98 | COc1cc(C)c(S(=O)(=O)N2CCCCC2CCOCC(=O)N2CCC(OCCN3CCCC3)(c3cccnc3)CC2)c(C)c1 (centres unmarked) [Example 124, 2-[2-[1-[(4-methoxy-2,6-dimethyl-phenyl)sulfonyl]-piperidin-2-yl]-ethoxy]-1-[4-pyridin-3-yl-4-(2-pyrrolidin-1-yl-ethoxy)-piperidin-1-yl]-ethanone] |

Same assay, conditions: CHO-K1, 10 μM test substance; CHO K1 cells with rat B1R gene (rB1R cells); Des-Arg9-bradykinin at EC80; % inhibition compared with the maximum achievable inhibition; read-out: B1R antagonism, rat [10 μM] % inhibition

| Molecule | inhibition at 10 µM [%] |
| --- | --- |
| Cc1cc(S(=O)(=O)N2CCCCC2CCC(=O)N2CCC(OCCN3CCCC3)(c3ccc(C(F)(F)F)cc3)CC2)c(C)cc1Cl (centres unmarked) [Example 75, 3-[1-[(4-chloro-2,5-dimethyl-phenyl)sulfonyl]-piperidin-2-yl]-1-[4-(2-pyrrolidin-1-yl-ethoxy)-4-[4-(trifluoromethyl)-phenyl]-piperidin-1-yl]-propan-1-one] | 96 |
| COc1cc(C)c(S(=O)(=O)N(CCOCC(=O)N2CCC(OCCN3CCCC3)(c3ccc(F)cc3)CC2)C2CC2)c(C)c1 [Example 66, N-cyclopropyl-N-[2-[2-[4-(4-fluorophenyl)-4-(2-pyrrolidin-1-yl-ethoxy)-piperidin-1-yl]-2-oxo-ethoxy]-ethyl]-4-methoxy-2,6-dimethyl-benzenesulfonic acid amide] | 97 |
| O=C(CC1CCCCN1S(=O)(=O)c1cccc(C(F)(F)F)c1)N1CCC(OCCN2CCCC2)(c2ccc(F)cc2)CC1 (centres unmarked) [Example 72, 1-[4-(4-fluorophenyl)-4-(2-pyrrolidin-1-yl-ethoxy)-piperidin-1-yl]-2-[1-[[3-(trifluoromethyl)phenyl]sulfonyl]-piperidin-2-yl]-ethanone] | 62 |
| O=C(CCCC1CCCCN1S(=O)(=O)c1cccc2ccccc12)N1CCC(OCCN2CCCC2)(c2cccc(F)c2)CC1 (centres unmarked) [Example 93, 1-[4-(3-fluorophenyl)-4-(2-pyrrolidin-1-yl-ethoxy)-piperidin-1-yl]-4-[1-(naphthalen-1-ylsulfonyl)-piperidin-2-yl]-butan-1-one] | 101 |
| Cc1cccc(Cl)c1S(=O)(=O)N1CCCCC1COCC(=O)N1CCC(OCCN2CCCC2)(c2ccc(F)cc2)CC1 (centres unmarked) [Example 68, 2-[[1-[(2-chloro-6-methyl-phenyl)sulfonyl]-piperidin-2-yl]-methoxy]-1-[4-(4-fluorophenyl)-4-(2-pyrrolidin-1-yl-ethoxy)-piperidin-1-yl]-ethanone] | 93 |
| O=C(CC(NS(=O)(=O)c1ccc2ccccc2c1)c1ccccc1)N1CCC(OCCN2CCCC2)(c2ccc(C(F)(F)F)cc2)CC1 (centres unmarked) [Example 77, N-[3-oxo-1-phenyl-3-[4-(2-pyrrolidin-1-yl-ethoxy)-4-[4-(trifluoromethyl)-phenyl]-piperidin-1-yl]-propyl]-naphthalene-2-sulfonic acid amide] | 94 |
| COc1cc(C)c(S(=O)(=O)N2CCCCC2COCC(=O)N2CCC(OCCN3CCCC3)(c3ccc(F)cc3)CC2)c(C)c1 (centres unmarked) [Example 64, 1-[4-(4-fluorophenyl)-4-(2-pyrrolidin-1-yl-ethoxy)-piperidin-1-yl]-2-[[1-[(4-methoxy-2,6-dimethyl-phenyl)sulfonyl]-piperidin-2-yl]-methoxy]-ethanone] | 98 |
| O=C(CCCC1CCCCN1S(=O)(=O)c1ccc2ccccc2c1)N1CCC(OCCN2CCCC2)(c2cccc(F)c2)CC1 (centres unmarked) [Example 96, 1-[4-(3-fluorophenyl)-4-(2-pyrrolidin-1-yl-ethoxy)-piperidin-1-yl]-4-[1-(naphthalen-2-ylsulfonyl)-piperidin-2-yl]-butan-1-one] | 79 |
| COc1cc(C)c(S(=O)(=O)N2CCCCC2CCCC(=O)N2CCC(OCCN3CCCC3)(c3ccc(C(F)(F)F)cc3)CC2)c(C)c1 (centres unmarked) [Example 79, 4-[1-[(4-methoxy-2,6-dimethyl-phenyl)sulfonyl]-piperidin-2-yl]-1-[4-(2-pyrrolidin-1-yl-ethoxy)-4-[4-(trifluoromethyl)-phenyl]-piperidin-1-yl]-butan-1-one] | 100 |
| O=C(CC(NS(=O)(=O)c1ccc2ccccc2c1)c1ccccc1)N1CCC(OCCN2CCCC2)(c2ccc(F)cc2)CC1 (centres unmarked) [Example 76, N-[3-[4-(4-fluorophenyl)-4-(2-pyrrolidin-1-yl-ethoxy)-piperidin-1-yl]-3-oxo-1-phenyl-propyl]-naphthalene-2-sulfonic acid amide] | 90 |

Results, then the molecule that gave them:

| inhibition at 10 µM [%] | Molecule |
| --- | --- |
| 101 | O=C(COCC1COc2ccccc2N1S(=O)(=O)c1ccccc1C(F)(F)F)N1CCC(OCCN2CCCC2)(c2cccc(F)c2)CC1 (centres unmarked) [Example 111, 1-[4-(3-fluorophenyl)-4-(2-pyrrolidin-1-yl-ethoxy)-piperidin-1-yl]-2-[[4-[[2-(trifluoromethyl)-phenyl]sulfonyl]-3,4-dihydro-2H-[1,4]benzoxazin-3-yl]-methoxy]-ethanone] |
| 99 | COc1cc(C)c(S(=O)(=O)N2CCCCC2CCOCC(=O)N2CCC(OCCN3CCCC3)(c3cccc(F)c3)CC2)c(C)c1 (centres unmarked) [Example 125, 1-[4-(3-fluorophenyl)-4-(2-pyrrolidin-1-yl-ethoxy)-piperidin-1-yl]-2-[2-[1-[(4-methoxy-2,6-dimethyl-phenyl)sulfonyl]-piperidin-2-yl]-ethoxy]-ethanone] |
| 41 | O=C(CC1COc2ccccc2N1S(=O)(=O)c1ccc(Cl)cc1Cl)N1CCC(OCCN2CCCC2)(c2cccc(F)c2)CC1 (centres unmarked) [Example 128, 2-[4-[(2,4-dichlorophenyl)sulfonyl]-3,4-dihydro-2H-[1,4]benzoxazin-3-yl]-1-[4-(3-fluorophenyl)-4-(2-pyrrolidin-1-yl-ethoxy)-piperidin-1-yl]-ethanone] |
| 96 | COc1cc(C)c(S(=O)(=O)N2CCCCC2CCOCC(=O)N2CCC(OCCN3CCCC3)(c3cccnc3)CC2)c(C)c1 (centres unmarked) [Example 123, 2-[2-[1-[(4-methoxy-2,6-dimethyl-phenyl)sulfonyl]-piperidin-2-yl]-ethoxy]-1-[4-pyridin-3-yl-4-(2-pyrrolidin-1-yl-ethoxy)-piperidin-1-yl]-ethanone] |
